Source: US8263636B2, “Dual alanyl aminopeptidase and dipeptidyl peptidase iv inhibitors for functionally influencing different cells and for treating immunological inflammatory, neuronal and other diseases” (IMTM GmbH, priority 2003, dated 2012)

Test system: dextran sulfate-induced colitis
Assay: Dextran sulfate-induced colitis of mice
Format: in vivo, female Balb/c mice
Settings: 10 μg single inhibitor i.p. on three successive days from day 5; day 7; insignificant; FIG. 2

Compound	reduction of the heaviness of the disease (score)
N[C@@H](CCCCNC(=O)OCc1ccc([N+](=O)[O-])cc1)C(=O)N1CCCC1 [Lys[Z(NO2)] pyrrolidide]	−12.3%
CCCCC[C@H](CC(=O)NO)C(=O)N[C@H](C(=O)N1CCC[C@H]1CO)C(C)C [actinonine]	−16.5%

Test system: ovalbumine-induced asthma bronchiale
Assay: Ovalbumine-induced asthma bronchiale of mice
Format: in vivo, female Balb/c mice
Settings: i.p. 0.1 mg of each inhibitor, days 28-35; ovalbumine challenge day 35; FIG. 3A
Description: Female Balb/c mice were sensitized for the antigen ovalbumine capable of inducing asthma bronchiale by an intreperitoneal administration of 10 μg ovalbumine on the days 0, 14 and 21. On day 27/28, the animals received a boostering dose of ovalbumine by inhalation [vD3]. After an intreperitoneal administration of the peptidase inhibitors on the days 28-35, there was effected an intranasal ovalbumine challenge on day 35, as well as a check of the allergic premature reaction via the pulmonal function. There were measured: the average expiratory flux (EF50), the tidal volume, the respiration rate and the minute volume as well as the number of eosinophilic granulocytes in the bronchoalveolar lavage. 8 to 10 animals were used per experimental group. By way of example, in FIG. 3A, there is summarized the effect of the peptidase inhibitors on the reduction of the EF50 value.

Compound	effect on the reduction of the average expiratory flux (EF50)
N[C@@H](CCCCNC(=O)OCc1ccc([N+](=O)[O-])cc1)C(=O)N1CCCC1 [Lys[Z(NO2)] pyrrolidide]	showed a therapeutic effect
CCCCC[C@H](CC(=O)NO)C(=O)N[C@H](C(=O)N1CCC[C@H]1CO)C(C)C [actinonine]	showed a therapeutic effect

Molecular target: dipeptidyl peptidase IV (DPIV) (Homo sapiens, UniProt P27487)
Assay: Inhibition of dipeptidyl peptidase IV enzymatic activity, fluorogenic substrate (Ala-Pro)2-rhodamine
Format: biochemical
Settings: not given
Description: (§1) The inhibition characteristics measured are referred to as IC-50 values or ID50 values (the lafter marked with “*”) for both enzymes. The enzymatic activity was determined by means of the fluorogenic substrates/products (Ala-Pro)2-rhodamine and (Ala)2-rhodamine.

Chain of dipeptidyl peptidase IV (DPIV) (P27487 whole entry, species assumed): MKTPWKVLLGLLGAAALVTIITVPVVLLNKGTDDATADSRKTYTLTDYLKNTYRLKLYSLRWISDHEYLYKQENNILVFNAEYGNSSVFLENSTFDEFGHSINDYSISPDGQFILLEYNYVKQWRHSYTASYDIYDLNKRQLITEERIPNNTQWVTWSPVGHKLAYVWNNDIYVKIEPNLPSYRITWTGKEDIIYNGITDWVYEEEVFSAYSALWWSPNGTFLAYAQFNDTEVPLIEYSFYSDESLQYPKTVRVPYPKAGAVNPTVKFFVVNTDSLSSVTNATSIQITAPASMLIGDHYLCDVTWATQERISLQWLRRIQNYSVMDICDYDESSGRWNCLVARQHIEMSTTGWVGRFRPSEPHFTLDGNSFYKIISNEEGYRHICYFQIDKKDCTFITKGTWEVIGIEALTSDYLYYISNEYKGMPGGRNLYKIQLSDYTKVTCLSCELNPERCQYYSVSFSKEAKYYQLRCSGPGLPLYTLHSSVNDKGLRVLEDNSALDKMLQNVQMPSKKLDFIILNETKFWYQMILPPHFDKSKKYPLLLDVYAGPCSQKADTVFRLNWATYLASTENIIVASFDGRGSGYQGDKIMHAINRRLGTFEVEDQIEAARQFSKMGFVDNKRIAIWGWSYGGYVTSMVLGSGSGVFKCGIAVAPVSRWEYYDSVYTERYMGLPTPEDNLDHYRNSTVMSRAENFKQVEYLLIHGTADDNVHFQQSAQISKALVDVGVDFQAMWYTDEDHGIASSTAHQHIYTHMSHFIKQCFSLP

Compound	IC50
COc1cc(C)[n+](OC(=O)N(C)C)c(C)c1 [Compound C8.021]	119 µM

Same assay, conditions: Table 8; first value of cell; marked * = ID50 value; read-out: ID50 DPIV (marked with *)

Compound	IC50
O=C(N/C(=C\c1ccco1)C(=O)N1CCCC(CO)C1)c1ccccc1 (centres unmarked) [Compound C8.020]	152 µM

Same assay, conditions: Table 8; first value of cell; unmarked = IC-50; read-out: IC50 DPIV

Compound	IC50
COC(=O)C1=C(N)N2C(=O)CSC2=C(C(=O)OC(C)C)C1 [Compound C8.003]	10.8 µM
C=CCN1C(=O)C(C#N)=C(C)/C(=C\c2ccc(-c3cc(C)c(C)cc3[N+](=O)[O-])o2)C1=O [Compound C8.012]	65.4 µM

Same assay, conditions: first value of cell DPIV/APN; marked * = ID50 value; read-out: ID50 DPIV (marked with *)

Compound	IC50
COc1ccc(C(=O)N/N=C\c2cc(Br)c(O)c(O)c2Br)cc1 [Compound C2.013]	94 µM

Same assay, conditions: first value of cell DPIV/APN; unmarked = IC-50; read-out: IC50 DPIV

IC50	Compound
40.8 µM	COc1ccc(OCC(=O)N/N=C/c2cc(Br)c(O)c(O)c2Br)c(Br)c1 [Compound C2.005]
32 µM	CCOC(=O)C1CCN(C(c2ccccn2)c2c(C)[nH]c3ccccc23)CC1 (centres unmarked) [Compound C4.007]
54 µM	Cc1[nH]c2ccccc2c1C(c1ccccn1)N1CCC(C(N)=O)CC1 (centres unmarked) [Compound C4.010]
61 µM	Cc1[nH]c2ccccc2c1C(c1cccs1)N1CCC(C(N)=O)CC1 (centres unmarked) [Compound C4.014]
49 µM	CCOC(=O)N1CCN(C(c2cccs2)c2c(C)[nH]c3ccccc23)CC1 (centres unmarked) [Compound C4.015]
49 µM	COc1ccc(C(c2c(C)[nH]c3ccccc23)N2CCCC2)cc1 (centres unmarked) [Compound C4.016]
18.9 µM	CCOC(=O)C(NC(=O)c1cccc(Cl)c1)(Nc1ccccc1OC)C(F)(F)F (centres unmarked) [Compound C7.001]
25.4 µM	CCOC(=O)C(NC(=O)c1ccc(OC)cc1)(N1CCCC1=O)C(F)(F)F (centres unmarked) [Compound C7.002]
10.8 µM	COC(=O)C1=C(N)N2C(=O)CSC2=C(C(=O)OC(C)C)C1 [Compound C10.003]
99.4 µM	COc1ccccc1N1C(=O)c2ccc(Oc3ccc(NC(=O)CCS(=O)(=O)c4ccc(C)cc4)cc3)cc2C1=O [Compound C10.015]
10.8 µM	COC(=O)C1=C(N)N2C(=O)CSC2=C(C(=O)OC(C)C)C1 [Compound C16.001]
79 µM	CC(C)OC(=O)C1=C(N)N2C(=O)CSC2=C(C(=O)OC(C)C)C1 [Compound C16.007]
139 µM	CCOC(=O)C1=c2s/c(=C\c3cccs3)c(=O)n2C(N)=C(S(=O)(=O)c2ccccc2)C1c1cccs1 (centres unmarked) [Compound C16.008]
140 µM	COC(=O)C1=c2s/c(=C\c3cccc(OC)c3)c(=O)n2C(N)=C(S(=O)(=O)c2ccccc2)C1c1cccc(OC)c1 (centres unmarked) [Compound C16.009]
115 µM	COC(=O)C1=c2s/c(=C\c3ccc(C)cc3)c(=O)n2C(N)=C(S(=O)(=O)c2ccccc2)C1c1ccc(C)cc1 (centres unmarked) [Compound C16.011]

Further lines, the molecule ahead of its results:

Compound	IC50
O=C(N/N=C/c1cc(Br)cc(Br)c1OC(=O)c1ccccc1)/C(=C/c1ccc2c(c1)OCO2)NC(=O)c1ccccc1 [Compound C4.006]	38.6 µM
Cc1[nH]c2ccccc2c1C(c1ccccn1)N1CCN(c2ccccn2)CC1 (centres unmarked) [Compound C4.008]	45 µM
Cc1[nH]c2ccccc2c1C(c1ccccn1)N1CCN(c2ccc(F)cc2)CC1 (centres unmarked) [Compound C4.009]	96 µM
Cc1[nH]c2ccccc2c1C(c1ccccn1)N1CCCC1 (centres unmarked) [Compound C4.011]	170 µM
Cc1[nH]c2ccccc2c1C(c1ccccn1)N1CCOCC1 (centres unmarked) [Compound C4.012]	59 µM
Cc1[nH]c2ccccc2c1C(c1ccccn1)N1CCCCC1 (centres unmarked) [Compound C4.013]	74 µM
Cc1[nH]c2ccccc2c1C(c1cccs1)N1CCCCC1 (centres unmarked) [Compound C4.017]	67 µM
Cc1[nH]c2ccccc2c1C(c1cccs1)N1CCOCC1 (centres unmarked) [Compound C4.018]	61 µM
Cc1[nH]c2ccccc2c1C(c1cccs1)N1CCCC1 (centres unmarked) [Compound C4.019]	57 µM
O=C(N/C(=C\c1ccco1)C(=O)N1CCCC(CO)C1)c1ccccc1 (centres unmarked) [Compound C9.006]	152 µM
COc1ccc(N2C(=O)c3ccc(Oc4ccc(N5C(=O)c6ccc(C(=O)O)cc6C5=O)cc4)cc3C2=O)cc1 [Compound C12.001]	20.6 µM

Same assay, conditions: read-out: IC50 DPIV

Compound	IC50
Cc1ccc(C)n1-c1cccc(C(=O)N/N=C/c2cc(Br)c(O)c(Br)c2)c1 [Compound C2.007]	41.1 µM
Cc1ccc(/C=N/NC(=O)c2cccc(I)c2)o1 [Compound C2.010]	57.4 µM

Molecular target: alanyl aminopeptidase (APN) (Homo sapiens, UniProt P15144)
Assay: Inhibition of alanyl aminopeptidase enzymatic activity, fluorogenic substrate (Ala)2-rhodamine
Format: biochemical
Settings: Table 8; second value of cell; unmarked = IC-50
Description: as §1

Chain of alanyl aminopeptidase (APN) (P15144 whole entry, species assumed): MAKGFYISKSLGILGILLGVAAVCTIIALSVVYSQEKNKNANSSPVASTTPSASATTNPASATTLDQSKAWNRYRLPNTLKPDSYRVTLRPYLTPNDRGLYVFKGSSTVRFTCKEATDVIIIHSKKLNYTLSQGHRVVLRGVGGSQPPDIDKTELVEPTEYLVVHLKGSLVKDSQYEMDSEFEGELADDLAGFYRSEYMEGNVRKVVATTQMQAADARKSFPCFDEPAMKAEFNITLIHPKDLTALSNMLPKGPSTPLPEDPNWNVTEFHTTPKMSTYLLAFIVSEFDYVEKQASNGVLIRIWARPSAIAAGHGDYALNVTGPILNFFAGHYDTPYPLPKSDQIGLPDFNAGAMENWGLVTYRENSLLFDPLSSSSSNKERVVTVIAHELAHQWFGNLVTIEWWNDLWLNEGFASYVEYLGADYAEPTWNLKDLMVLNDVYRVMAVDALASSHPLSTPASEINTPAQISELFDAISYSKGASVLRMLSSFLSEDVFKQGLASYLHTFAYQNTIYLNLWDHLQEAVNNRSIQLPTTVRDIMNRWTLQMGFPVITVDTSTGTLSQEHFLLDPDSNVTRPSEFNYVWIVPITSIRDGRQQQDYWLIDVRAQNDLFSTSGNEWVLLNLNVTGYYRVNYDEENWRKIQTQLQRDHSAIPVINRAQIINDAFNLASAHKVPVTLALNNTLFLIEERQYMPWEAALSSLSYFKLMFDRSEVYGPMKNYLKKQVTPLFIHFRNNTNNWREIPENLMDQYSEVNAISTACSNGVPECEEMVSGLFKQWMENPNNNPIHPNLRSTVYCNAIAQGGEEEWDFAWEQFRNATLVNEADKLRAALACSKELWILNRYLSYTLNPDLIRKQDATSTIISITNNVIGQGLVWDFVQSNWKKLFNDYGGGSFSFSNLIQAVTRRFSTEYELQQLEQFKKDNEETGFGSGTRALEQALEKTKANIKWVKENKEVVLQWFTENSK

Compound	IC50 APN
CN(C)CCNc1nc2c(c(=O)n(C)c(=O)n2C)n1Cc1ccccc1Cl [Compound C8.002]	7.5/Inactive

Same assay, conditions: Table 8; second value of cell; unmarked = IC-50; read-out: IC50 APN

Compound	IC50
CCOC(=O)C(NC(=O)c1ccc(OC)cc1)(N1CCOCC1)C(F)(F)F (centres unmarked) [Compound C8.017]	90.2 µM

Same assay, conditions: second value of cell DPIV/APN; marked * = ID50 value; read-out: ID50 APN (marked with *)

Compound	IC50
COc1cc(Br)c(OCC(=O)N/N=C/c2cc(Br)c(O)c(O)c2Br)c(Br)c1 [Compound C2.003]	5.4 µM
COc1ccc(C(=O)N/N=C/c2cc(O)c(O)c(Br)c2Br)cc1 [Compound C2.012]	33.6 µM
CCOC(=O)C(NC(=O)c1ccccc1)(N1CCOCC1)C(F)(F)F (centres unmarked) [Compound C7.004]	186 µM

Same assay, conditions: second value of cell DPIV/APN; unmarked = IC-50; read-out: IC50 APN

IC50	Compound
32 µM	CCOC(=O)C1CCN(C(c2ccccn2)c2c(C)[nH]c3ccccc23)CC1 (centres unmarked) [Compound C4.007]
42 µM	Cc1[nH]c2ccccc2c1C(c1ccccn1)N1CCC(C(N)=O)CC1 (centres unmarked) [Compound C4.010]
48 µM	Cc1[nH]c2ccccc2c1C(c1cccs1)N1CCC(C(N)=O)CC1 (centres unmarked) [Compound C4.014]
25 µM	CCOC(=O)N1CCN(C(c2cccs2)c2c(C)[nH]c3ccccc23)CC1 (centres unmarked) [Compound C4.015]
30 µM	COc1ccc(C(c2c(C)[nH]c3ccccc23)N2CCCC2)cc1 (centres unmarked) [Compound C4.016]
21.7 µM	CCOC(=O)C(NC(=O)c1cccc(Cl)c1)(Nc1ccccc1OC)C(F)(F)F (centres unmarked) [Compound C7.001]
90.2 µM	CCOC(=O)C(NC(=O)c1ccc(OC)cc1)(N1CCOCC1)C(F)(F)F (centres unmarked) [Compound C7.003]
26.7 µM	COc1ccccc1N1C(=O)c2ccc(Oc3ccc(NC(=O)CCS(=O)(=O)c4ccc(C)cc4)cc3)cc2C1=O [Compound C10.015]
6.9 µM	COC(=O)C1=C(N)N2C(=O)CSC2=C(C(=O)OC(C)C)C1 [Compound C16.001]
75 µM	CC(C)OC(=O)C1=C(N)N2C(=O)CSC2=C(C(=O)OC(C)C)C1 [Compound C16.007]
100 µM	COC(=O)C1=c2s/c(=C\c3ccco3)c(=O)n2C(N)=C(S(=O)(=O)c2ccccc2)C1c1ccco1 (centres unmarked) [Compound C16.010]

The remaining lines, values behind:

Compound	IC50
Cc1[nH]c2ccccc2c1C(c1cc(Cl)ccc1O)N1CCOCC1 (centres unmarked) [Compound C4.002]	11.8 µM
Cc1[nH]c2ccccc2c1C(c1ccccn1)N1CCN(c2ccccn2)CC1 (centres unmarked) [Compound C4.008]	28 µM
Cc1[nH]c2ccccc2c1C(c1ccccn1)N1CCN(c2ccc(F)cc2)CC1 (centres unmarked) [Compound C4.009]	76 µM
Cc1[nH]c2ccccc2c1C(c1ccccn1)N1CCOCC1 (centres unmarked) [Compound C4.012]	36 µM
Cc1[nH]c2ccccc2c1C(c1ccccn1)N1CCCCC1 (centres unmarked) [Compound C4.013]	78 µM
Cc1[nH]c2ccccc2c1C(c1cccs1)N1CCCCC1 (centres unmarked) [Compound C4.017]	31 µM
Cc1[nH]c2ccccc2c1C(c1cccs1)N1CCOCC1 (centres unmarked) [Compound C4.018]	32 µM
Cc1[nH]c2ccccc2c1C(c1cccs1)N1CCCC1 (centres unmarked) [Compound C4.019]	35 µM
COc1ccc(N2C(=O)c3ccc(Oc4ccc(N5C(=O)c6ccc(C(=O)O)cc6C5=O)cc4)cc3C2=O)cc1 [Compound C12.001]	14.8 µM
